Measured values as given in patent US5288723A, “A composition and a method of using veratridine and epinephrine as a local anesthetic” (priority 1991, dated 1994).
Entries after “also recorded” stand apart in the source; their conditions may differ.

What was measured:
rat sciatic nerve [1] = test: Motor block of rat sciatic nerve in vivo (toe curling and/or foot dragging); parameters: species or system Male Sprague-Dawley rats; conditions: for duration, MOTOR / onset, MOTOR: mean ± SEM
Protocol: (§1) Male Sprague-Dawley rats (200-250 g) were divided into 4 groups of 10 each. 0.1 ml of VTD alone at 0.2, 0.5 or 0.7 mM or vehicle (saline) was injected at the depression between the femoral head and the hip. The same animals were injected with VTD with epinephrine (EPI, 1:200,000) one week later, using the previously uninjected leg. Motor and sensory functions were rated by the respective monitoring of toe curling and/or foot dragging, and by testing the nocifensive withdrawal reflex to pinch of the foot pad of the injected hindlimb. Saline alone affected neither function.

[2] = tested on: Na^+ channel of the mammalian brain; conditions: purified polypeptides in phospholipid vesicles; cited from earlier work
rat sciatic nerve [3] = test: Motor block of rat sciatic nerve in vivo (toe curling and/or foot dragging); parameters: species or system Male Sprague-Dawley rats
rat sciatic nerve [4] = test: Sensory block of rat sciatic nerve in vivo (nocifensive withdrawal reflex to pinch of the foot pad); parameters: species or system Male Sprague-Dawley rats; conditions: for fraction block, SENSORY / duration, SENSORY / onset, SENSORY: 0.1 ml; for duration, SENSORY / onset, SENSORY: mean ± SEM
Protocol: as §1

[5] = tested on: vagus nerve with intact sheath (C-fibers); test: Extracellular recordings from sheathed nerves; parameters: species or system rabbit
Protocol: The nerves were cleaned and desheathed by microdissection before mounting in an airtight chamber (FIG. 2B) [Gissen et al., Anesthesiology 53:467-474 (1980)]. Petroleum jelly (White Petrolatum, Denison Laboratories) seals separated a central, 11-mm length of the nerve from the lateral pools, used for stimulating and recording with electrodes made of platinum wire. The central section of the chamber (volume 0.25 ml) was perfused with HL solution at 0.5 ml.min.^-1. The lateral pools containing the moistened ends of the nerves adsorbed to the electrodes were filled with paraffin oil. The APc s were propagated over 21 mm, from the stimulating to the recording electrodes, with the proximal recording electrodc located 4.5 mm from the edge of the central, drug exposure chamber. Thus, measured APc s were conducted in nerve exposed to drug for half of the conduction pathway, and had been conducting through drug-free medium over a distance containing at least two or three nodes of Ranvier (in the fastest-conducting fibers), before reaching the recording electrodes.
The signal from the nerve was amplified 50 times (model AK 475 operational amplifier, Metametrics, Carlisle, Mass.) and passed to the oscilloscope preamplifiers (model 5A 22N, Tektronix). The preparation was not considered acceptable unless the APc signals from the nerve exceeded 1.5 mV for A-fibers, 0.5 mV for B-fibers, and 0.3 mV for C-fibers.
Each nerve was exposed to only one VTD concentration, and each concentration was tested in four or five separate nerves, except in tie sheathed nerves, for which only two nerves were used. The temperature was 20°-22° C.
We tested the ability of VTD to penetrate the tissues ensheathing the vagus nerve. Nerves with intact sheaths were arranged in the same extracellular recording chamber as had been used for the desheathed nerve studies just described. Because of the electrical isolating qualities of the sheath, stimulus requirements are greater and the recorded APC s are smaller, but have the same latency from stimulation as in the desheathed nerves. […] However, the onset of the effect was much slower and the VTD dose requirement much higher: 2 μM VTD took approximately 30 min. to affect the C-fibers detectably, and 10 μM took approximately 15 min. This is expected in a lipophilic base for which more than 90%, on average, of the drug molecules are ionized [Kupchan and By, "The Veratrum Group," in Alkaloids, Vol. 10, Manske, R.H.F. (ed.), New York, Academic Press (1968), pp. 193-285].

COc1ccc(C(=O)OC2CCC3(C)C4CCC5C6(O)CC(O)C7(O)C(CN8CC(C)CCC8C7(C)O)C6(O)CC53OC24O)cc1OC (centres unmarked) [VTD, veratridine]
Onset of motor block (summary) (rat sciatic nerve [1]; VTD alone, 0.2-0.7 mM): 6 to 12 min | duration, MOTOR (rat sciatic nerve [1]; [VTD] 0.2 mM, 0.1 ml): 124 ± 19 min | fraction block, MOTOR (rat sciatic nerve [1]; [VTD] 0.5 mM, 0.1 ml): 10/10 | duration, MOTOR (rat sciatic nerve [1]; [VTD] 0.5 mM, 0.1 ml): 211 ± 31 min | onset, MOTOR (rat sciatic nerve [1]; [VTD] 0.5 mM, 0.1 ml): 10 ± 3 min | duration, MOTOR (rat sciatic nerve [1]; [VTD] 0.7 mM, 0.1 ml): 285 ± 39 min | onset, MOTOR (rat sciatic nerve [1]; [VTD] 0.7 mM, 0.1 ml): 6 ± 2 min | Motor function inhibition compared with bupivacaine and lidocaine (rat sciatic nerve [1]; rat sciatic nerve): more potent and longer acting inhibitor of motor function than either bupivacaine or lidocaine; also recorded: more potent and longer-acting inhibitor of motor function than either bupivacaine or lidocaine | Sodium flux into vesicles in response [2]: sodium flux into these vesicles occurs | Duration of motor block (summary) (rat sciatic nerve [3]; VTD alone, 0.2-0.7 mM, approximately): 100 to 300 min | fraction block, MOTOR (rat sciatic nerve [3]; [VTD] 0.2 mM, 0.1 ml): 8/10 | onset, MOTOR (rat sciatic nerve [3]; [VTD] 0.2 mM, 0.1 ml, mean ± SEM): 13 ± 2 min | fraction block, MOTOR (rat sciatic nerve [3]; [VTD] 0.7 mM, 0.1 ml): 5/10 | Duration of nerve block compared with bupivacaine and lidocaine (rat sciatic nerve [3]; rat sciatic nerve): longer duration than both | Frequency of sensory block (summary) (rat sciatic nerve [4]; VTD alone, vs motor block): less frequently | fraction block, SENSORY (rat sciatic nerve [4]; [VTD] 0.2 mM): 1/10 | duration, SENSORY (rat sciatic nerve [4]; [VTD] 0.2 mM): 51 min | onset, SENSORY (rat sciatic nerve [4]; [VTD] 0.2 mM): 13 min | fraction block, SENSORY (rat sciatic nerve [4]; [VTD] 0.5 mM): 2/10 | duration, SENSORY (rat sciatic nerve [4]; [VTD] 0.5 mM): 224 ± 44 min | onset, SENSORY (rat sciatic nerve [4]; [VTD] 0.5 mM): 3 ± 1 min | fraction block, SENSORY (rat sciatic nerve [4]; [VTD] 0.7 mM): 4/10 | duration, SENSORY (rat sciatic nerve [4]; [VTD] 0.7 mM): 115 ± 1 min | onset, SENSORY (rat sciatic nerve [4]; [VTD] 0.7 mM): 10 ± 2 min | Block of nocifensive reflexes compared with bupivacaine and lidocaine (rat sciatic nerve [4]; rat sciatic nerve): blocked less predictably | Time to affect the C-fibers detectably, sheathed nerve ([5]; 2 μM VTD): approximately 30 min. | Time to affect the C-fibers detectably, sheathed nerve ([5]; 10 μM VTD): approximately 15 min. | Use-dependent reduction as % of that achieved at steady state on a desheathed nerve by 0.2 μm VTD ([5]; 10 Hz, 60-min. exposure to 10 μm VTD): approximately 30% | C-fiber elevation / APc inhibition in sheathed nerves ([5]; intact sheath): inhibited selectively; also recorded: progressively inhibited in a use-dependent fashion | Reduction of rate of penetration into the nerve by the sheath ([5]; sheathed vs desheathed nerve): at least 50 fold | Rate of VTD action with intact nerve sheath ([5]; vs desheathed nerves): far less than in desheathed nerves | Duration of steady-state effect in drug-free solution ([5]; wash-out period after 75 min. exposure, both nerves tested, up to): up to 3 h
